# In patent US9149547B2, “Process for production of heterodimers of glutamic acid” (Molecular Insight Pharmaceuticals, Inc., priority 2009, dated 2015):
# Key:
# [1] = Stability at room temperature, free I-123 content quantitated by HPLC; type: physicochemical
# Protocol: Stability Results: Stability was evaluated for up to 2 days at room temperature by quantitation of free 1-123 content present by HPLC. The stability was determined at room temperature in an attempt to accelerate any product degradation to more rapidly assess the effectiveness of each radioprotectants in the formulation matrix.
# [2] = Stability profile of final formulation at room temperature (FIG. 4); type: physicochemical; conditions: 6% sodium ascorbate/ascorbic acid with 2.3% sodium gentisate in sterile water for injection, compared to formulation of PBS (pH=9.0)
# Protocol: In a 5 mL vial containing [^123I]NaI was added sterile water for injection (SWFI) (50 μL), 50% sulfuric acid in SWFI (50 μL), oxidant (100 μL) (which was prepared fresh via the incubation of acetic acid (0.2 mL) and 30% hydrogen peroxide (0.335 mL) followed by dilution to a final volume of 5 mL with SWFI), acetonitrile (0.5 mL), and the trimethylstannane precursor, Sn-MIP-1095 (compound 9) (100 μL of a 1 mg/mL solution in acetonitrile). The mixture was vortexed for 1 min and allowed to incubate at room temperature for an additional 10 minutes. The reaction was quenched with 200 μL of 0.1 M sodium thiosulfate. The product was then diluted in 18 mL of SWFI and loaded onto a C18 Sep Pak Plus column. The column was washed with 60 mL SWFI to remove unreacted radioiodine and inorganic and organic salts. The Sn-MIP-1095 precursor and ^123I-MIP-1095 ester are retained on the column. ^123I-MIP-1095 ester was eluted from the column using 4 mL of ethanol, while the Sn-MIP-1095 precursor was retained on the column. The resulting solution, containing the ^123I-MIP-1095 ester, was evaporated to dryness under a stream of nitrogen and the residue was dissolved in methylene chloride (0.5 mL) and TFA (2 mL) was added to remove the ester protecting groups. The deprotection solution was incubated at room temperature for 45 minutes. […]
SMILES,"stability of formulation ([1]; 6% ascorbate/3% gentisate formulation, 250 mCi scale-up runs)","increase in free iodine ([1]; stored at room temperature, evaluated for up to 2 days, free I-123 by HPLC)",stability profile of final formulation [2]
"O=C(O)CC[C@H](NC(=O)N[C@@H](CCCCNCc1ccc(I)cc1)C(=O)O)C(=O)O [^123I-MIP-1072, ^123I—(S)-2-(3-((S)-1-carboxy-5-(4-iodobenzylamino)pentyl)ureido)pentanedioic Acid]",good stability,3-5 % per day,
"O=C(O)CC[C@H](NC(=O)N[C@@H](CCCCNC(=O)Nc1ccc(I)cc1)C(=O)O)C(=O)O [^123I-MIP-1095, ^123I—(S)-2-(3-((S)-1-Carboxy-5-(3-(4-iodophenyl)ureido)pentyl)ureido)pentanedioic Acid]",,,stable profile
